Patent US12516016B2, “GPX4 inhibitors, pharmaceutical compositions thereof, and their use for treating GPX4-mediated diseases” (EUBULUS BIOTHERAPEUTICS (HONG KONG) LIMITED, priority 2020, dated 2026)

test system: hepatocellular carcinoma cell line Hub-7; assay: Cell proliferation assay (CELL-TITER GLO cell viability); assay type: cell-based; details: 24 h, Hub-7 cells, 24 h incubation, read-out: Inhibition of Cell Proliferation EC50
Description: The activity of a test compound was determined in a cell proliferation assay using the hepatocellular carcinoma cell line […]. Cells (4,000 cells per well) were seeded in a 96-well tissue culture plate. After incubated overnight, a test compound was added at predetermined concentrations, starting with 10 μM and followed by 3-fold serial dilution. After the cells were incubated for 24 h, cell viability was determined using a CELL-TITER GLO® assay. The CELL-TITER GLO® reagent (50 μL) was added to each well and the luminescence was measured by a multimode microplate reader after a brief period of shaking. EC50 values were determined for the test compound. The results are summarized in Table 1, wherein A represents a value no greater than 100 nM, B represents a value greater than 100 nM but no greater than 500 nM, C represents a value greater than 500 nM but no greater than 2 μM, D represents a value greater than 2 μM but no greater than 10 μM; and E represents a value greater than 10 μM.

Row | SMILES | EC50
1 | C#CC(=O)N(c1cccc(C(=O)OC)c1)C(C(=O)NC(C)(C)C)c1ccc(N)cc1 (centres unmarked) [A8, Methyl 3-(N-(1-(4-aminophenyl)-2-(tert-butylamino)-2-oxoethyl)-propiolamido)-benzoate] | ≤ 100 nM
2 | C#CC(=O)N(c1cccc(Cl)c1)C(C(=O)NC(C)(C)C)c1cccc(N)c1 (centres unmarked) [A20, N-(1-(3-aminophenyl)-2-(tert-butylamino)-2-oxoethyl)-N-(3-chlorophenyl)propiolamide] | 100 to 500 nM
3 | C#CC(=O)N(c1ccc(OC)c(Cl)c1)C(C(=O)NC(C)(C)C)c1cccc(N)c1 (centres unmarked) [A21, N-(1-(3-Aminophenyl)-2-(tert-butylamino)-2-oxoethyl)-N-(3-chloro-4-methoxyphenyl)propiolamide] | 100 to 500 nM
4 | C#CC(=O)N(c1ccc(NC(C)=O)cc1)C(C(=O)NC(C)(C)C)c1cccc(N)c1 (centres unmarked) [A23, N-(4-Acetamidophenyl)-N-(1-(3-aminophenyl)-2-(tert-butylamino)-2-oxoethyl)-propiolamide] | 2000 to 10000 nM
5 | C#CC(=O)N(c1ccc(NS(C)(=O)=O)cc1)C(C(=O)NC(C)(C)C)c1cccc(N)c1 (centres unmarked) [A24, N-(1-(3-Aminophenyl)-2-(tert-butylamino)-2-oxoethyl)-N-(4-(methyl-sulfonamido)phenyl)propiolamide] | > 10000 nM
6 | C#CC(=O)N(c1ccc(S(N)(=O)=O)cc1)C(C(=O)NC(C)(C)C)c1cccc(N)c1 (centres unmarked) [A25, N-(1-(3-Aminophenyl)-2-(tert-butylamino)-2-oxoethyl)-N-(4-sulfamoylphenyl)-propiolamide] | > 10000 nM
7 | C#CC(=O)N(c1ccc(CO)cc1)C(C(=O)NC(C)(C)C)c1cccc(N)c1 (centres unmarked) [A26, N-(1-(3-Aminophenyl)-2-(tert-butylamino)-2-oxoethyl)-N-(4-(hydroxymethyl)-phenyl)propiolamide] | 2000 to 10000 nM
8 | C#CC(=O)N(c1ccc(OC)cc1)C(C(=O)NC(C)(C)C)c1cccc(N)c1 (centres unmarked) [A29, N-(1-(3-Aminophenyl)-2-(tert-butylamino)-2-oxoethyl)-N-(4-methoxyphenyl)-propiolamide] | 500 to 2000 nM
9 | C#CC(=O)N(c1cccc(Cl)c1)C(C(=O)NCc1ccccc1)c1ccc(N)cc1 (centres unmarked) [A32, N-(1-(4-Aminophenyl)-2-(benzylamino)-2-oxoethyl)-N-(3-chlorophenyl)-propiolamide] | ≤ 100 nM
10 | C#CC(=O)N(c1cccc(Cl)c1)C(C(=O)NCc1ccccc1)c1cccc(N)c1 (centres unmarked) [A33, N-(1-(3-Aminophenyl)-2-(benzylamino)-2-oxoethyl)-N-(3-chlorophenyl)-propiolamide] | ≤ 100 nM
11 | C#CC(=O)N(c1ccc(OC)c(Cl)c1)C(C(=O)NCc1ccccc1)c1cccc(N)c1 (centres unmarked) [A34, N-(1-(3-Aminophenyl)-2-(benzylamino)-2-oxoethyl)-N-(3-chloro-4-methoxy-phenyl)propiolamide] | ≤ 100 nM
12 | C#CC(=O)N(Cc1ccccc1)C(C(=O)NCc1ccccc1)c1cccc(N)c1 (centres unmarked) [A36, N-(1-(3-Aminophenyl)-2-(benzylamino)-2-oxoethyl)-N-benzylpropiolamide] | 500 to 2000 nM
13 | C#CC(=O)N(c1cccc(O)c1)C(C(=O)NCc1ccccc1)c1cccc(N)c1 (centres unmarked) [A37, N-(1-(3-Aminophenyl)-2-(benzylamino)-2-oxoethyl)-N-(3-hydroxyphenyl)-propiolamide] | ≤ 100 nM
14 | C#CC(=O)N(c1cccc(C#N)c1)C(C(=O)NCc1ccccc1)c1cccc(N)c1 (centres unmarked) [A38, N-(1-(3-Aminophenyl)-2-(benzylamino)-2-oxoethyl)-N-(3-cyanophenyl)-propiolamide] | 100 to 500 nM
15 | C#CC(=O)N(c1cccc(CO)c1)C(C(=O)NCc1ccccc1)c1cccc(N)c1 (centres unmarked) [A39, N-(1-(3-Aminophenyl)-2-(benzylamino)-2-oxoethyl)-N-(3-(hydroxymethyl)-phenyl)propiolamide] | 2000 to 10000 nM
16 | C#CC(=O)N(c1cc(Cl)ccc1F)C(C(=O)NCc1ccccc1)c1cccc(N)c1 (centres unmarked) [A40, N-(1-(3-Aminophenyl)-2-(benzylamino)-2-oxoethyl)-N-(5-chloro-2-fluorophenyl)-propiolamide] | ≤ 100 nM
17 | C#CC(=O)N(c1cccc(Cl)c1F)C(C(=O)NCc1ccccc1)c1cccc(N)c1 (centres unmarked) [A41, N-(1-(3-Aminophenyl)-2-(benzylamino)-2-oxoethyl)-N-(3-chloro-2-fluoro-phenyl)propiolamide] | ≤ 100 nM
18 | C#CC(=O)N(c1cccc(NS(C)(=O)=O)c1)C(C(=O)NCc1ccccc1)c1cccc(N)c1 (centres unmarked) [A42, N-(1-(3-Aminophenyl)-2-(benzylamino)-2-oxoethyl)-N-(3-(methylsulfonamido)-phenyl)propiolamide] | 2000 to 10000 nM
19 | C#CC(=O)N(c1cccc(F)c1)C(C(=O)NCc1ccccc1)c1cccc(N)c1 (centres unmarked) [A43, N-(1-(3-Aminophenyl)-2-(benzylamino)-2-oxoethyl)-N-(3-fluorophenyl)-propiolamide] | 100 to 500 nM

Other lines, results leading:

Row | EC50 | SMILES
20 | > 10000 nM | C#CC(=O)N(c1cccc(S(N)(=O)=O)c1)C(C(=O)NC(C)(C)C)c1ccc(N)cc1 (centres unmarked) [A2, N-(1-(4-aminophenyl)-2-(tert-butylamino)-2-oxoethyl)-N-(3-sulfamoylphenyl)propiolamide]
21 | ≤ 100 nM | C#CC(=O)N(c1ccc(OC)c(Cl)c1)C(C(=O)NC(C)(C)C)c1ccc(N)cc1 (centres unmarked) [A3, N-(1-(4-Aminophenyl)-2-(tert-butylamino)-2-oxoethyl)-N-(3-chloro-4-methoxy-phenyl)propiolamide]
22 | 100 to 500 nM | C#CC(=O)N(c1ccc(Cl)cc1)C(C(=O)NC(C)(C)C)c1ccc(N)cc1 (centres unmarked) [A4, N-(1-(4-Aminophenyl)-2-(tert-butylamino)-2-oxoethyl)-N-(4-chlorophenyl)-propiolamide]
23 | 100 to 500 nM | C#CC(=O)N(c1cccc(Cl)c1)C(C(=O)NC(C)(C)C)c1ccc(N)cc1 (centres unmarked) [A5, N-(1-(4-Aminophenyl)-2-(tert-butylamino)-2-oxoethyl)-N-(3-chlorophenyl)-propiolamide]
24 | 2000 to 10000 nM | C#CC(=O)N(c1cccc(S(C)(=O)=O)c1)C(C(=O)NC(C)(C)C)c1ccc(N)cc1 (centres unmarked) [A6, N-(1-(4-Aminophenyl)-2-(tert-butylamino)-2-oxoethyl)-N-(3-(methylsulfonyl)phenyl)propiolamide]
25 | 100 to 500 nM | C#CC(=O)N(c1cccc(OC)c1)C(C(=O)NC(C)(C)C)c1ccc(N)cc1 (centres unmarked) [A7, N-(1-(4-Aminophenyl)-2-(tert-butylamino)-2-oxoethyl)-N-(3-methoxyphenyl)-propiolamide]
26 | 2000 to 10000 nM | C#CC(=O)N(c1ccc(N)cc1)C(C(=O)NC(C)(C)C)c1ccc(N)cc1 (centres unmarked) [A9, N-(4-Aminophenyl)-N-(1-(4-aminophenyl)-2-(tert-butylamino)-2-oxoethyl)-propiolamide]
27 | > 10000 nM | C#CC(=O)N(c1ccc(C(N)=O)cc1)C(C(=O)NC(C)(C)C)c1ccc(N)cc1 (centres unmarked) [A10, 4-(N-(1-(4-Aminophenyl)-2-(tert-butylamino)-2-oxoethyl)propiolamido)-benzamide]
28 | > 10000 nM | C#CC(=O)N(c1ccc(S(N)(=O)=O)cc1)C(C(=O)NC(C)(C)C)c1ccc(N)cc1 (centres unmarked) [A11, N-(1-(4-Aminophenyl)-2-(tert-butylamino)-2-oxoethyl)-N-(4-sulfamoylphenyl)-propiolamide]
29 | > 10000 nM | C#CC(=O)N(c1ccc(O)cc1)C(C(=O)NC(C)(C)C)c1ccc(N)cc1 (centres unmarked) [A12, N-(1-(4-Aminophenyl)-2-(tert-butylamino)-2-oxoethyl)-N-(4-hydroxyphenyl)-propiolamide]
30 | 2000 to 10000 nM | C#CC(=O)N(c1ccc(NC(C)=O)cc1)C(C(=O)NC(C)(C)C)c1ccc(N)cc1 (centres unmarked) [A13, N-(4-Acetamidophenyl)-N-(1-(4-aminophenyl)-2-(tert-butylamino)-2-oxoethyl)-propiolamide]
31 | ≤ 100 nM | C#CC(=O)N(c1ccc(C(=O)OC)cc1)C(C(=O)NC(C)(C)C)c1ccc(N)cc1 (centres unmarked) [A14, Methyl 4-(N-(1-(4-aminophenyl)-2-(tert-butylamino)-2-oxoethyl)-propiolamido)-benzoate]
32 | 2000 to 10000 nM | C#CC(=O)N(c1ccc(S(C)(=O)=O)cc1)C(C(=O)NC(C)(C)C)c1ccc(N)cc1 (centres unmarked) [A15, N-(1-(4-Aminophenyl)-2-(tert-butylamino)-2-oxoethyl)-N-(4-(methylsulfonyl)-phenyl)propiolamide]
33 | 2000 to 10000 nM | C#CC(=O)N(c1ccc(CO)cc1)C(C(=O)NC(C)(C)C)c1ccc(N)cc1 (centres unmarked) [A16, N-(1-(4-Aminophenyl)-2-(tert-butylamino)-2-oxoethyl)-N-(4-(hydroxymethyl)-phenyl)propiolamide]
34 | > 10000 nM | C#CC(=O)N(c1ccc(NS(C)(=O)=O)cc1)C(C(=O)NC(C)(C)C)c1ccc(N)cc1 (centres unmarked) [A17, N-(1-(4-Aminophenyl)-2-(tert-butylamino)-2-oxoethyl)-N-(4-(methyl-sulfonamido)phenyl)propiolamide]
35 | 500 to 2000 nM | C#CC(=O)N(c1ccc(OC)cc1)C(C(=O)NC(C)(C)C)c1ccc(N)cc1 (centres unmarked) [A18, N-(1-(4-Aminophenyl)-2-(tert-butylamino)-2-oxoethyl)-N-(4-methoxyphenyl)-propiolamide]
36 | 2000 to 10000 nM | C#CC(=O)N(c1ccc(N)cc1)C(C(=O)NC(C)(C)C)c1cccc(N)c1 (centres unmarked) [A22, N-(4-Aminophenyl)-N-(1-(3-aminophenyl)-2-(tert-butylamino)-2-oxoethyl)-propiolamide]
37 | 2000 to 10000 nM | C#CC(=O)N(c1ccc(O)cc1)C(C(=O)NC(C)(C)C)c1cccc(N)c1 (centres unmarked) [A27, N-(1-(3-Aminophenyl)-2-(tert-butylamino)-2-oxoethyl)-N-(4-hydroxyphenyl)-propiolamide]

same assay, conditions: Hub-7 cells, 24 h incubation, read-out: Inhibition of Cell Proliferation EC50

Row | EC50 | SMILES
38 | 100 to 500 nM | C#CC(=O)N(c1cccc(C(=O)OC)c1)C(C(=O)NC(C)(C)C)c1ccc(N)cc1 (centres unmarked) [A28, Methyl 3-(N-(1-(4-aminophenyl)-2-(tert-butylamino)-2-oxoethyl)-propiolamido)-benzoate]
